Entries after “also recorded” stand apart in the source; their conditions may differ.
Legend:
Male Sprague-Dawley rats [1] = test: Example 2: dobutamine vs levosimendan for post-resuscitation myocardial failure, 8 min untreated VF + 6 min precordial compression; format: in vivo, rat
Procedure: The animals were anesthetized following intraperitoneal injection of 45 mg kg^−1 pentobarbital. […] No anesthetic agent was administrated during the 30 minute interval prior to inducing cardiac arrest.
Pressures were measured with a high sensitivity pressure transducer (Model 42584-01; Abbott Critical Care System, North Chicago, Ill.). The optimally damped frequency response of the system was 22 Hz. […] Guided by pressure monitoring, the catheter was slowly withdrawn into the right atrium. Right atrial pressure was measured with reference to the mid-chest with another high sensitivity pressure transducer (Abbott model 42584-01). This catheter also served as an injection site for the thermal tracer. A 4 F polyethylene catheter (model C-PMS401J; Cook Critical Care, Bloomington, Ind.) was advanced through the right external jugular vein into the right atrium. A precurved guide wire supplied with the catheter was then advanced through the catheter into the right ventricle until an endocardial electrogram was observed. Another 23-gauge polyethylene catheter (PE 50) was advanced through the left femoral artery into the abdominal aorta for measurement of aortic pressure with the same Abbott high sensitivity transducer and also for sampling arterial blood. […] The thermocouple provided for measurements of blood temperature and thermodilution cardiac output. […] An additional PE 50 catheter was advanced into right femoral vein for drug infusion. EKG lead II was continuously recorded.
Experimental Procedure: A total of 15 animals were investigated. The investigators were blinded to the intervention until immediately prior to inducing VF, at which time the principal investigator opened a sealed envelope for assignment to one of three groups: (1) levosimendan (2) dobutamine or (3) saline placebo. This allowed time for preparation of a fresh dilution of the selected drug. […] Current flow was continued for 3 minutes to prevent spontaneous defibrillation as previously described (Von Planta I, Weil MH. Cardiopulmonary resuscitation in the rat. J Appl Physiol. 1988;65(6):2641-2647). Ventilation was discontinued after onset of VF. Precordial compression was begun with a pneumatically driven mechanical chest compressor after 8 minutes of untreated VF and continued for 6 minutes. These methods have been extensively exercised and have been well-documented (see Von Plata I (supra)) and Sun SJ, Weil MH, Tang W, et al. Combined effects of buffer and adrenergic agent on postresuscitation myocardial function. J Pharm Exp Ther. 1999;291 :773-777). Coincident with the start of precordial compression, the animals were mechanically ventilated. Tidal volume was established at 6.5 ml per kg animal weight, a frequency of 100 min^−1, and on a FiO2 of 1.0.

Male Sprague-Dawley rats [2] = test: Example 4: levosimendan bolus during cardiopulmonary resuscitation (VF cardiac arrest); format: in vivo, rat; conditions: for ETCO2 / Negative dP/dt / left ventricular diastolic pressure: post-resuscitation (FIG. 23)
Procedure: No anesthetic agents were initially administrated 30 min prior to inducing cardiac arrest. […] Right atrial pressure was measured with a high-sensitivity pressure transducer (model 42584-01; Abbott Critical Care System, North Chicago, Ill.). […] Blood temperature was measured with this sensor. […] Duplicate thermodilution curves were obtained and recorded with the aid of a cardiac output computer (CO-100; Institute of Critical Care Medicine, Palm Springs, Calif.). A PE 50 catheter was advanced through the left femoral artery into the thoracic aorta for sampling arterial blood for analysis of blood gases and for the measurement of aortic pressure with a high-sensitivity pressure transducer (model 42584-01; Abbott Critical Care System). Systolic, diastolic, and the interpreted mean arterial pressure were continuously recorded. […] A 4F polyethylene catheter (model C-PMS-401J; Cook Critical Care, Bloomington, Ind.) was next advanced through the right external jugular vein into the right atrium for inducing VF. A precurved guide wire, supplied with the catheter, was then advanced through the catheter into the right ventricle until an endocardial electrogram was observed. […] Current flow was then reduced to one half and continued for 3 min such as to prevent spontaneous defibrillation. VF was untreated for six min. […] Precordial compressions were performed with a pneumatically driven mechanical chest compressor. These procedures were previously described in greater detail (Von Planta I, supra) and are well-known to those of ordinary skill in the art (see e.g. Tang W, Weil M H, Sun S, Noc M, Yang L, Gazmuri R. Epinephrine increases the severity of postresuscitation myocardial dysfunction. Circulation 1995; 92: 3089-3093 and Sun S, Weil MH, Tang W, Povoas H, Mason E. Combined effect of buffer and adrenergic agent on postresuscitation myocardial function. Pharmacology 1999; 291 (2): 773-777).
Coincident with start of precordial compression, the animals were mechanically ventilated.

Male Sprague-Dawley rats [3] = test: Example 1: post-resuscitation myocardial dysfunction after VF cardiac arrest, drug infusion for 240 min post-resuscitation
rats = test: Example 1: feasibility studies and dose titration of levosimendan; format: in vivo, rat
[4] = 20 μg/kg bolus during VF, vs placebo
[5] = 4-hour interval following resuscitation, vs saline placebo (FIG. 22)
[6] = 12 μg levosimendan followed by 0.3 μg/kg/min, comparable to 3 μg/kg/min dobutamine

With `C[C@@H]1CC(=O)NN=C1c1ccc(NN=C(C#N)C#N)cc1` [Levosimendan] the “mean arterial pressure (MAP)” value (Male Sprague-Dawley rats [1]; between the three groups) was “no significant differences”, the duration of survival (Male Sprague-Dawley rats [1]; observed over 72 hours, least with saline placebo (FIG. 15)) was “maximal” and the “left ventricular diastolic (filling) pressures” value (Male Sprague-Dawley rats [1]; post-resuscitation) was “significantly lesser increases”. For the same compound, the cardiac index (Male Sprague-Dawley rats [1]; post-resuscitation (FIG. 13)) was “significant increases in cardiac index”, the dP/dt40 (Male Sprague-Dawley rats [1]; vs saline placebo (FIG. 14)) was “Significantly greater” and the “−dP/dt” value (Male Sprague-Dawley rats [1]; vs saline placebo (FIG. 14)) was “Significantly greater”. The “cumulative number of electrical shocks required for successful defibrillation” value (Male Sprague-Dawley rats [2]; [4]) was “significantly less”, the “interval of CPR prior to successful resuscitation” value (Male Sprague-Dawley rats [2]; [4]) was “significantly shorter” and the MAP (Male Sprague-Dawley rats [2]; [5]) was “Significantly greater; also recorded: increases”. For the same compound, the cardiac index (Male Sprague-Dawley rats [2]; [5]) was “Significantly greater; also recorded: increases”, the dP/dt40 (Male Sprague-Dawley rats [2]; [5]) was “Significantly greater; also recorded: increases” and the CPP (Male Sprague-Dawley rats [2]; levosimendan vs placebo controls, prior to/or after administration) was “No differences”. The ST segment elevation (Male Sprague-Dawley rats [2]; post-resuscitation) was “lesser”, the ETCO2 (Male Sprague-Dawley rats [2]) was “increases” and the “Negative dP/dt” value (Male Sprague-Dawley rats [2]) was “increases”. For the same compound, the “left ventricular diastolic pressure” value (Male Sprague-Dawley rats [2]) was “decreased”, the ETCO2 (Male Sprague-Dawley rats [2]; listed as levosimendan) was “increased” and the “Negative dP/dt” value (Male Sprague-Dawley rats [2]; listed as levosimendan) was “increased”. The “left ventricular diastolic pressure” value (Male Sprague-Dawley rats [2]; listed as levosimendan) was “reduction”, the “duration of post-resuscitation survival” value (Male Sprague-Dawley rats [2]; vs placebo) was “significantly increased” and the “peripheral arterial resistance (PAR)” value (Male Sprague-Dawley rats [2]; vs saline placebo (FIG. 24)) was “significantly decreased”. For the same compound, the arterial pressures (Male Sprague-Dawley rats [3]; among the three groups, at PR10 and after administration of the drugs (FIG. 4)) was “No significant differences”, the cardiac index (Male Sprague-Dawley rats [3]; post-resuscitation (FIG. 6)) was “comparable increases in cardiac index” and the “contractility as reflected in the dP/dt40” value (Male Sprague-Dawley rats [3]; post-resuscitation (FIG. 9)) was “consistently greater increases in contractility”. The stroke volume (Male Sprague-Dawley rats [3]; post-resuscitation, initially (FIG. 7)) was “significantly greater stroke volumes”, the “left ventricular diastolic (filling) pressures” value (Male Sprague-Dawley rats [3]; vs control and dobutamine-treated animals (FIG. 11)) was “substantially lower and near normal” and the post-resuscitation survival (Male Sprague-Dawley rats [3]; vs dobutamine and placebo (FIG. 12)) was “significantly longer post-resuscitation survival”. For the same compound, the “systemic vascular (arterial) resistance” value (Male Sprague-Dawley rats [3]; vs placebo-treated controls (FIG. 8)) was “Comparable and significant reductions”, the arterial pressure (rats; [6]) was “declines in arterial pressure” and the cardiac output (rats; [6]) was “increases in cardiac output”. For the same compound, the arterial pressure (rats; higher doses of levosimendan) was “decreases in arterial pressure”, the cardiac output (rats; higher doses of levosimendan) was “additional increases in cardiac output” and the heart rate (rats; higher doses of levosimendan) was “increases in heart rate”.

Source: patent US20060293395A1, “Methods for treating a mammal before, during and after cardiac arrest” (priority 2004, published 2006)
